Results as given in PubChem BioAssay (NCI).
Where “and” joins values, the source holds several entries; their conditions need not be identical. Equal entries are not always repeated.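 A five-concentration, 48-hour dose response in 96-well plates underlies each endpoint, interpolated linearly between surrounding concentrations. The concentration for 50% growth inhibition is given as GI50. TGI denotes the concentration required for complete inhibition of growth.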

What was measured:
Test in all cases: DTP human tumour cell line panel, 48 h
UO-31 renal = tested on: UO-31 renal
HCC-2998 colon = tested on: HCC-2998 colon
RXF 393 renal = tested on: RXF 393 renal
K-562 leukemia = tested on: K-562 leukemia
OVCAR-4 ovarian = tested on: OVCAR-4 ovarian
UACC-62 melanoma = tested on: UACC-62 melanoma
MOLT-4 leukemia = tested on: MOLT-4 leukemia
LOX IMVI melanoma = tested on: LOX IMVI melanoma
HOP-62 NSCLC = tested on: HOP-62 NSCLC
MDA-MB-231 breast = tested on: MDA-MB-231 breast
DU-145 prostate = tested on: DU-145 prostate
SN12C renal = tested on: SN12C renal
NCI-H522 lung = tested on: NCI-H522 lung
HOP-92 NSCLC = tested on: HOP-92 NSCLC
HT29 colon = tested on: HT29 colon
SK-MEL-5 melanoma = tested on: SK-MEL-5 melanoma
IGROV1 ovarian = tested on: IGROV1 ovarian
HS 578T breast = tested on: HS 578T breast
SNB-75 CNS = tested on: SNB-75 CNS
TK-10 renal = tested on: TK-10 renal
NCI-H226 lung = tested on: NCI-H226 lung
HL-60(TB) leukemia = tested on: HL-60(TB) leukemia
SF-539 CNS = tested on: SF-539 CNS
PC-3 prostate = tested on: PC-3 prostate
A549 NSCLC = tested on: A549 NSCLC
NCI/ADR-RES ovarian = tested on: NCI/ADR-RES ovarian
OVCAR-3 ovarian = tested on: OVCAR-3 ovarian
SR leukemia = tested on: SR leukemia
M14 melanoma = tested on: M14 melanoma
MALME-3M melanoma = tested on: MALME-3M melanoma

O=C(NNc1nc2cc(F)c(F)cc2n2cccc12)c1cccnn1
GI50 (UO-31 renal): 105 nM and 41.4 nM
TGI (UO-31 renal): 3.97 µM and 2.34 µM
GI50 (HCC-2998 colon): 589 nM and 474 nM
TGI (HCC-2998 colon): 30 µM and 19.5 µM
GI50 (RXF 393 renal): 700 nM and 245 nM
TGI (RXF 393 renal): 4.13 µM and 13.2 µM
GI50 (K-562 leukemia): 374 nM and 323 nM
TGI (K-562 leukemia): 30 µM and 3.78 µM
GI50 (OVCAR-4 ovarian): 209 nM and 201 nM
TGI (OVCAR-4 ovarian): 30 µM and > 100 µM
GI50 (UACC-62 melanoma): 331 nM and 388 nM
TGI (UACC-62 melanoma): 2.29 µM and 8.83 µM
GI50 (MOLT-4 leukemia): 178 nM and 136 nM
GI50 (LOX IMVI melanoma): 247 nM and 156 nM
TGI (LOX IMVI melanoma): 1.09 µM and 5.27 µM
GI50 (HOP-62 NSCLC): 275 nM and 99.4 nM
TGI (HOP-62 NSCLC): 9.22 µM and 11.3 µM
GI50 (MDA-MB-231 breast): 559 nM and 750 nM
TGI (MDA-MB-231 breast): 30 µM and 54.7 µM
GI50 (DU-145 prostate): 346 nM and 579 nM
TGI (DU-145 prostate): 30 µM and 16.1 µM
GI50 (SN12C renal): 468 nM and 646 nM
TGI (SN12C renal): 30 µM and 31.4 µM
GI50 (NCI-H522 lung): 747 nM and 262 nM
GI50 (HOP-92 NSCLC): 398 nM
TGI (HOP-92 NSCLC): 8.82 µM
GI50 (HT29 colon): 644 nM and 542 nM
TGI (HT29 colon): 30 µM and 29.2 µM
GI50 (SK-MEL-5 melanoma): 491 nM and 271 nM
TGI (SK-MEL-5 melanoma): 3350 nM and 2000 nM
GI50 (IGROV1 ovarian): 227 nM and 273 nM
TGI (IGROV1 ovarian): 5.02 µM and 4.69 µM
GI50 (HS 578T breast): 1400 nM and 1040 nM
TGI (HS 578T breast): 30 µM and 79 µM
GI50 (SNB-75 CNS): 267 nM and 1910 nM
TGI (SNB-75 CNS): 22 µM and 25.4 µM
GI50 (TK-10 renal): 263 nM and 294 nM
TGI (TK-10 renal): 30 µM and 29 µM
GI50 (NCI-H226 lung): 387 nM and 643 nM
TGI (NCI-H226 lung): 14.7 µM and 12.1 µM
GI50 (HL-60(TB) leukemia): 570 nM and 231 nM
GI50 (SF-539 CNS): 349 nM and 339 nM
TGI (SF-539 CNS): 9.18 µM and 8.1 µM
GI50 (PC-3 prostate): 201 nM and 419 nM
GI50 (A549 NSCLC): 316 nM and 249 nM
TGI (A549 NSCLC): 30 µM and 15 µM
GI50 (NCI/ADR-RES ovarian): 205 nM and 207 nM
TGI (NCI/ADR-RES ovarian): 2.88 µM and 3.56 µM
GI50 (OVCAR-3 ovarian): 227 nM and 243 nM
TGI (OVCAR-3 ovarian): 3.71 µM and 13.2 µM
GI50 (SR leukemia): 175 nM and 48.6 nM
GI50 (M14 melanoma): 309 nM and 197 nM
TGI (M14 melanoma): 30 µM and 11.5 µM
GI50 (MALME-3M melanoma): 771 nM and 811 nM
TGI (MALME-3M melanoma): 28.7 µM
